Experimental data as given in US8084456B2, “Pyrazine-based tubulin inhibitors” (YM Biosciences Australia Pty Ltd, priority 2002, dated 2011).

Tests used:
[1] = tested on: Tubulin; experiment: Tubulin assay (turbidometric microtubule assembly); format: biochemical; details: at 50 μM, absorbance at 340 nm, 37° C.
Description: Turbidometric assays of microtubule assembly were performed by incubating microtubule protein in cuvettes at 37° C. in a thermostatically controlled spectrophotometer measuring the change in absorbance at 340 nm over time. The microtubule protein was incubated with the each test compound at 0° C. and polymerisation was initiated by addition of 1 mM GTP, prior to heating to 37° C.

[2] = tested on: DU145 (Prostate Cancer) cells; experiment: Cellular growth assay (MTT), DU145; format: cell-based; details: Homo sapiens, DU-145, 40 hr incubation, read-out: DU145 (inhibition of 50% of cellular growth)
Description: (§1) K562 (Chronic Myeloid Leukemia), PC3 (Prostate Cancer), and DU145 (Prostate Cancer) were obtained from the American Type Culture Collection (ATCC). K562 was grown in RPMI, with 10% FBS with Glutamx added. DU145 cells were cultured in DMED, with 10% FBS and Glutamx and MEM non-essential amino acids added. PC3 cells were grown in F12K medium, with 10% FBS and Glutamx and MEM non-essential amino acids added. All cells were grown at 37° C. in 5% CO2.

[3] = target: TelJak3 (Homo sapiens, UniProt P52333); experiment: Cellular growth assay (MTT), BaF3 TEL/JAK3 cells; format: cell-based; details: 40 hr incubation, read-out: TelJak3 (inhibition of 50% of cellular growth)
[4] = tested on: PC3 (Prostate Cancer) cells; experiment: Cellular growth assay (MTT), PC3; format: cell-based; details: Homo sapiens, PC-3, 40 hr incubation, read-out: PC3 (inhibition of 50% of cellular growth)
Description: as §1

[5] = target: TelJak2 (Homo sapiens, UniProt O60674); experiment: Cellular growth assay (MTT), BaF3 TEL/JAK2 cells; format: cell-based; details: 40 hr incubation, read-out: TelJak2 (inhibition of 50% of cellular growth)
[6] = tested on: K562 (Chronic Myeloid Leukemia) cells; experiment: Cellular growth assay (MTT), K562; format: cell-based; details: Homo sapiens, 40 hr incubation, read-out: K562 (inhibition of 50% of cellular growth)
Description: as §1

Sequence of TelJak3 (P52333 with tags, fused parts or gaps): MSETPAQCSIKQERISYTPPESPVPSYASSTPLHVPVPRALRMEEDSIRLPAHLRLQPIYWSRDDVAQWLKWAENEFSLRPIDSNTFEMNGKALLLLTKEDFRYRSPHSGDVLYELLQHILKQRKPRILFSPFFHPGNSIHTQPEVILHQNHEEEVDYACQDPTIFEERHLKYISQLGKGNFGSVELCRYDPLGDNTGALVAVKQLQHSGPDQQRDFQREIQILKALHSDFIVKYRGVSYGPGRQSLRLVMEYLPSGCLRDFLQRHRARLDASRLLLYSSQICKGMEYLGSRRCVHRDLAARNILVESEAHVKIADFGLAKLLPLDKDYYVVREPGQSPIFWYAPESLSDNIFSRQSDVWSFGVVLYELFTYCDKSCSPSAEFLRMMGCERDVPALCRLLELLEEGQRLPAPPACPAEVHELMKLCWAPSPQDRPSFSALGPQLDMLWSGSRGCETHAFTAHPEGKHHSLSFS
Sequence of TelJak2 (O60674 with tags, fused parts or gaps): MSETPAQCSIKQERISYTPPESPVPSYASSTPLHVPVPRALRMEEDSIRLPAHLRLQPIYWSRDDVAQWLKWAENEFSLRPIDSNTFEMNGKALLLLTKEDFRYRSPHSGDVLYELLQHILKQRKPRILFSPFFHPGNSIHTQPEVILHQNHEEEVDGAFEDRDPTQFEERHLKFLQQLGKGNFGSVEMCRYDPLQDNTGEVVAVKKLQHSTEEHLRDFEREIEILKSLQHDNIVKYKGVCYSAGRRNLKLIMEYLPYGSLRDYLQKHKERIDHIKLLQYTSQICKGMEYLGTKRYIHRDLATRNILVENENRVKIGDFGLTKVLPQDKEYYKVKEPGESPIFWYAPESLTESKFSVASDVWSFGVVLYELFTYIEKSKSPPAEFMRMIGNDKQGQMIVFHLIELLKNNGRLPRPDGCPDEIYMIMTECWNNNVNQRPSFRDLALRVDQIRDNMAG

SMILES	Tubulin (inhibition of tubulin polymerisation) [1]	IC50 [2] [µM]	IC50 [3] [µM]	IC50 [4] [µM]	IC50 [5] [µM]	IC50 [6] [µM]
CCCC(Nc1cncc(-c2cc(C)c(O)c(C)c2)n1)c1ccc(F)cc1 (stereo not drawn)	+ (inhibited tubulin polymerisation by greater than 50% at 50 μM)	≤ 20	≤ 20	≤ 20	≤ 20	≤ 20
CCCC(Nc1cncc(-c2cc(C)c(OCCN(CC)CC)c(C)c2)n1)c1ccc(F)cc1 (stereo not drawn)	+ (inhibited tubulin polymerisation by greater than 50% at 50 μM)	≤ 20	≤ 20	≤ 20	≤ 20	≤ 20
